Measured values from patent US20150265558A1, “TREATMENT OF ADHD” (BTG International Limited, priority 2004, published 2015).

Key:
[1] = tested on: Fisher rats (frontal cortex, hippocampus, striatum, reticular formation); assay: Tele-Stereo-EEG: electrical power of four brain areas in freely-moving rats after single i.p. dose; assay type: in vivo, rat
Text: Analysis of brain field potentials (“Tele-Stereo-EEG”) has been proven to be a very sensitive tool for the characterization of drug effects on the central nervous system (Dimpfel et al., 1986). After administration of a centrally active drug, quantitative changes in the brain field potentials can be considered as a characteristic fingerprint of that particular drug. “Fingerprints” of more than 100 compounds have been obtained including 8 established drug categories, e.g. stimulants, sedatives, hallucinogenics, tranquilizers, analgesics, antidepressants, neuroleptics, and narcotics. Different dosages of the same drug cause quantitative changes in electrical power. […] Direct comparison with specific reference drugs, or by discriminant analysis with reference to an extensive fingerprint database, permits the detection of any possible similarities with established drugs. In general, “fingerprints” show prominent differences for drugs prescribed for different indications and are similar for drugs with the same indication (Dimpfel, 2003). Furthermore, the pattern of EEG changes in the rat is a useful tool in predicting possible changes in the EEG power spectrum in humans.
Adult Fisher rats (4-6 month of age and day—night converted, bodyweight approximately 400 g) were implanted with 4 bipolar concentric steel electrodes using a stereotaxic surgical procedure. According to the coordinates of Paxinos and Watson (1982), all four electrodes were placed 3 mm lateral within the left hemisphere. Anterior coordinates were 12.2, 5.7, 9.7 and 3.7 mm for frontal cortex, hippocampus, striatum and reticular formation, respectively. A baseplate carrying the electrodes and a 5-pin-plug was fixed to the skull by dental cement attached to 3 steel screws fixed into the skull. Animals were given two weeks for recovery from the surgical procedure.
EEG signals were recorded from frontal cortex, hippocampus, striatum and reticular formation and were amplified and processed as described by Dimpfel et al. (1986). After automatic artifact rejection, signals were collected in sweeps of 4 s duration and submitted to Fast Fourier transformation. The resulting electrical power spectra were divided into 6 frequency ranges: delta (0.8-4.5 Hz); theta (4.75-6.75 Hz); alpha1 (7.00-9.50 Hz); alpha2 (9.75-12.50 Hz); beta (12.75-18.50 Hz); beta2 (18.75-35.00 Hz). […] In an off-line procedure spectra were averaged to give 15 minute or longer periods for further statistical analysis.
Four doses of KTX 0101 (sodium (R)-3-hydroxybuytrate: 100, 300, 600 and 1000 mg/kg body weight) (supplied by Solvias AG, CH 4002 Basel, Switzerland, batch No: SO-1058.047.1.120) and a vehicle control (0.9% w/v saline) were administered intraperitoneally to a group of 12 animals using a crossover design with at least 3 drug holidays in between the applications. After a pre-drug period of 45 minutes for baseline recording, drug effects were observed continuously for 300 minutes. Changes of electrical power (uV2/W) are expressed as percentage of the 45 minute pre-drug values. Multivariate statistics were calculated according to Ahrens and Läuter (1974).

[2] = Plasma determination of (R)-3-hydroxybutyrate after i.p. injection; assay type: in vivo, Sprague-Dawley rats
Experimental: (§1) One hundred and seventy-one male Sprague-Dawley rats (weight range 200-250 g) housed on a standard […] were used. Animals had free access to a standard pelleted rat diet and tap water at all times. KTX 0101 (sodium (R)-3-hydroxybuytrate; 100, 300, 600 and 1000 mg/kg body weight) supplied by Sigma (H6501, Lot 111K2618) was administered by intraperitoneal injection. Control animals received the appropriate 0.9% saline vehicle via the same route. Animals were killed by CO2 asphyxiation 0 h, 0.5 h, 1.0 h or 2.0 h after dosing and a terminal blood sample was collected by cardiac puncture. Blood was taken in lithium heparinised tubes and kept on ice prior to centrifugation to yield the plasma samples for analysis.
Commercial clinical assay kits for the determination of D-β-hydroxybutyrate were obtained from Randox Laboratories (Antrim, UK). The kit quantified NADH via the activity of β-hydroxybutyrate dehydrogenase measured as an increase in OD340 nm. An alkaline pH is necessary to drive the reaction equilibrium towards the production of NADH and acetoacetate.
This spectrophotometric assay was modified for application to a 96 well microplate format. The reaction rate was then determined from the increase in OD340 nm over a 1 minute time course, after allowing a necessary period for the reaction rate to settle.

[3] = Plasma determination of acetoacetate after i.p. injection; assay type: in vivo, Sprague-Dawley rats; settings: 30 min after dosing
Experimental: as §1
The assay developed for the determination of acetoacetate was based on previously published clinical assays (Li et al, 1980; McMurray et al, 1984). A different assay buffer was prepared (0.1M Na2PO4 adjusted to pH 7.0 with HCl) in order to shift the equilibrium of the reaction to production of […] and NAD+, Other modifications included the additional use of sodium oxalate at a final assay concentration of 20 mM to inhibit lactate dehydrogenase (LDH) present in the plasma samples. […]
Acetoacetate was measured via the reduction in OD340 nm over a 1 minute period after allowing for the reaction rate to settle.

[4] = tested on: freely moving rat; settings: cited from earlier work; for effect on alpha2 frequencies: Dimpfel et al., 1987

C[C@@H](O)CC(=O)[O-].[Na+] [KTX 0101, sodium (R)-3-hydroxybuytrate]
duration of EEG effects ([1]; 100 mg/kg i.p.): 1 to 2 h
statistical significance of EEG changes ([1]; 100 mg/kg i.p.): not statistically significant
pattern of change in EEG electrical power ([1]; 100 mg/kg i.p., all regions): decrease of electrical power mainly with regard to alpha2
duration of EEG pattern of changes ([1]; 300 mg/kg ip): 2 h
pattern of change in EEG electrical power ([1]; 300 mg/kg ip): decreases in alpha2 power throughout all brain regions
statistical significance of EEG changes ([1]; 300 mg/kg ip): only statistically significant in the reticular formation
duration of EEG effects ([1]; 600 mg/kg ip, generally, except reticular formation): 2 h
duration of decreases in power in the reticular formation ([1]; 600 mg/kg ip, reticular formation): persisted throughout the third hour
statistical significance of EEG changes ([1]; 600 mg/kg ip, incl. first hour in striatum and all 24 variables overall): statistically significant
duration of decreases of power ([1]; 1000 mg/kg): lasting into the third hour
pattern of change in EEG electrical power ([1]; 1000 mg/kg): more prominent decreases of power
duration of decreases of power in the reticular formation ([1]; 1000 mg/kg, reticular formation, total experimental time): 5 h
statistical significance of EEG changes ([1]; 1000 mg/kg, even for the 4th hour within the reticular formation): statistically significant
brain regions with significant EEG changes ([1]; 2 highest doses (600 and 1000 mg/kg)): significant changes were also observed in the frontal cortex, hippocampus and striatum
similarity of qEEG fingerprint to drug classes by discriminant analysis ([1]; 24 variables, 20th to 50th min after single-dose application): close proximity to the dopaminergic psychostimulants, d-amphetamine and cocaine
EEG frequencies affected ([1]; 100 to 1000 mg/kg i.p.): all frequencies, except for the beta2 range
period of greatest changes in EEG patterns ([1]; after injection): 5 to 65 min
EEG changes, summary ([1]; dose range of 300 to 1000 mg/kg ip): clear, dose- and time-dependent statistically significant changes
plasma concentration of (R)-3-hydroxybutyrate ([2]; 100, 300, 600 and 1000 mg/kg ip): clear dose-dependent increases
time of highest elevation in plasma (R)-3-hydroxybutyrate ([2]; 100-1000 mg/kg ip, first sample): 30 min
time to return of plasma (R)-3-hydroxybutyrate to control values ([2]; after injection): ≤ 1 h
plasma concentration of acetoacetate ([3]; 600 mg/kg): significantly increased
plasma concentration of acetoacetate ([3]; 1000 mg/kg): significantly increased

Clc1cccc(Cl)c1N=C1NCCN1 [clonidine]
effect on theta activity ([4]; Dimpfel and Schober, 2001): increase

Oc1cc2c(cc1O)C(c1ccccc1)CNCC2 (stereo not drawn) [SKF 38393]
effect on alpha2 frequencies [4]: decrease alpha2 frequencies

CC(N)Cc1ccccc1 (stereo not drawn) [amphetamine]
effect on alpha2 frequencies [4]: decrease alpha2 frequencies

N[C@@H](Cc1ccc(O)c(O)c1)C(=O)O [L-DOPA]
effect on alpha2 frequencies [4]: decrease alpha2 frequencies
